For one assay, the target named is T1, D816V Kit (Homo sapiens, UniProt P10721, D816V).
T1 construct: purchased Carna Bioscience 08-156
Nature of the assay: Kit D816V assay at Km (Caliper electrophoretic mobility shift). Format: biochemical. Particulars: 15 uM ATP, 25 C, 90 minutes. How it is done: In order to assess the activity of chemical compounds against the relevant kinase of interest, the Caliper LifeSciences electrophoretic mobility shift technology platform is used. Fluorescently labeled substrate peptide is incubated in the presence of kinase and ATP so that a […] proportion of the peptide is phosphorylated. At the end of the reaction, the mix of phosphorylated (product) and non-phosphorylated (substrate) peptides are passed through the microfluidic system of the Caliper EZ Reader 2, under an applied potential difference. The presence of the phosphate group on the product peptide provides a difference in mass and charge between those of the substrate peptide, resulting in a separation of the substrate and product pools in the sample. As the pools pass a LEDS within the instrument, these pools are detected and resolved as separate peaks. The ratio between these peaks therefore reflects the activity of the chemical matter at that concentration in that well, under those conditions.
The reaction was stopped by the addition of 70 ul of Stop buffer (100 mM HEPES pH 7.5, 0.015% Brij 35, 35 mM EDTA and 0.2% of Coating Reagent 3 (Caliper Lifesciences)). The plate was then read on a Caliper EZReader 2 (protocol settings: −1.9 psi, upstream voltage −700, downstream voltage −3000, post sample sip 35 s).

The target in assay [1] is T2, Kit D816V (HMC1.2 cells, Kit V560G and D816V) (Homo sapiens, UniProt P10721, D816V/V560G).
T2 construct: endogenous in cells; host or cells: HMC1.2 cells
T2 sequence (P10721 26-976 V560G/D816V): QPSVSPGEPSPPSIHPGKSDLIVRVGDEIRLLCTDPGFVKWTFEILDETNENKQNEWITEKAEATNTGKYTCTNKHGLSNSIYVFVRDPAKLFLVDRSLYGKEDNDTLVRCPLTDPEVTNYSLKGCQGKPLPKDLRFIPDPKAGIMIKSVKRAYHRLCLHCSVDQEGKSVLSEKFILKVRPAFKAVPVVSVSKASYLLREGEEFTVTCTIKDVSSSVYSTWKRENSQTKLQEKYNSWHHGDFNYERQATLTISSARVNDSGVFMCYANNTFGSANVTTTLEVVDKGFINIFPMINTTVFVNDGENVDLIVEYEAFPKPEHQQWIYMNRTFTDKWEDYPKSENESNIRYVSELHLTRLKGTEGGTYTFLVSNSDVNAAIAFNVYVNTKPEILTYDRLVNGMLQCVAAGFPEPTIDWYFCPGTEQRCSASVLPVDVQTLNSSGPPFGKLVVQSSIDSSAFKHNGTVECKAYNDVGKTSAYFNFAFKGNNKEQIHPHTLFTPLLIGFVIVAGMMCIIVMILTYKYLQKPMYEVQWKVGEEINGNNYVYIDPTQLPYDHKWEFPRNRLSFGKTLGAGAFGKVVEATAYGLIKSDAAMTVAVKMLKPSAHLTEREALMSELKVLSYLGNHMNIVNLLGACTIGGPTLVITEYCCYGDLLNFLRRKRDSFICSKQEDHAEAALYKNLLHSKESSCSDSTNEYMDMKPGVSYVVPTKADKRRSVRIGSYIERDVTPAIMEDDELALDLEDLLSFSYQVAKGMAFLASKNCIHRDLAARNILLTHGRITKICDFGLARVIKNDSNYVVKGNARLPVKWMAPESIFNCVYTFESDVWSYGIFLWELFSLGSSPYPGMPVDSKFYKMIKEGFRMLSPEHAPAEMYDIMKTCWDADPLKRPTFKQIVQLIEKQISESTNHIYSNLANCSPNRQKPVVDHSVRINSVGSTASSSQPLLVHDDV
Put plainly: HMC1.2 autophosphorylation assay (AlphaLISA, phospho-Y719 c-Kit). The note with it: Kit autophosphorylation at tyrosine 719, 90 minutes, read-out: Cellular Activity. In kind it is cell-based. On the procedure: HMC1.2 Autophosphorylation Assay:
10,000 HMC1.2 cells were incubated in 22 ul culture media (phenol-red free IMDM, no serum) in each well of a 384-well plate and serum starved overnight in a tissue culture incubator (5% CO2, 37° C.). A 10-point dose concentration series of compound (25 uM-95.4 pM) were then added to the cells in a volume of 3.1 ul to each well (0.25% DMSO final concentration). After 90 minutes, 6 ul of 5× AlphaLISA Lysis Buffer (Perkin Elmer) supplemented with a protease and phosphatase inhibitor cocktail (Cell Signaling Technologies) was added to each well and shaken at 450 rpm for 15 minutes at 4° C. 10 ul of phospho-Y719 c-Kit and total c-Kit antibodies (15 nM final concentration, Cell Signaling Technologies) and 50 ug/ml AlphaLISA rabbit acceptor beads (Perkin Elmer) were added to each well and shaken at 300 rpm at room temperature for 2 hours. 10 ul of 100 ug/ml streptavidin donor beads (Perkin Elmer) were added to each well, blocked from light with aluminum adhesive and shaken at 300 rpm at room temperature for 2 hours. Fluorescence signal was obtained on Envision (Perkin Elmer) by AlphaScreen 384 well HTS protocol.
This cell line contains Kit mutated at positions V560G and D816V resulting in constitutive activation of the kinase. The following compounds were tested in an assay to measure direct inhibition of Kit D816V kinase activity by assaying Kit autophosphorylation at tyrosine 719 on the Kit protein.
(In general: In Alpha technology, singlet oxygen from a donor bead excites a nearby acceptor bead.)

The values that follow come from patent US9334263B2, “Compositions useful for treating disorders related to kit” (BLUEPRINT MEDICINES CORPORATION, priority 2013, dated 2016).

Molecules are shown by their SMILES.

T1 sequence (P10721 26-976 D816V): as the sequence (P10721 26-976 V560G/D816V) above, with G535V counted along it

Take `Cc1nn(C[C@H](C)O)cc1Nc1ncnc(N2CCN(c3ncc(Sc4ccccc4F)cn3)CC2)n1` [Compound 153]: the IC50 is below 0.001 µM at D816V Kit and 0.01 to 0.1 µM in assay [1].

For `Cc1c(Nc2ncnc(N3CCN(c4ncc(Sc5ccccc5F)cn4)CC3)n2)cnn1C[C@H](C)O` [Compound 154], the IC50 on D816V Kit is 0.00101 to 0.01 µM; in assay [1], 0.01 to 0.1 µM.

As for `OC1(c2ccc(Nc3ncnc(N4CCN(c5ncc(Cc6ccccc6)cn5)CC4)n3)cc2)CCCCC1` [Compound 155], the values for the IC50 (on D816V Kit; in assay [1]) were 0.00101 to 0.01 µM and 0.01 to 0.1 µM, respectively.

In the case of `c1ccc(Cc2cnc(N3CCN(c4ncnc(Nc5ccc(O[C@H]6CCCNC6)nc5)n4)CC3)nc2)cc1` [Compound 171], the IC50 is 0.00101 to 0.01 µM at D816V Kit and 0.01 to 0.1 µM in assay [1].

On to `CC1(C(O)c2ccc(Nc3ncnc(N4CCN(c5ncc(Cc6ccccc6)cn5)CC4)n3)cc2)COC1` (centres unmarked) [Compound 172], for which the results for the IC50 (on D816V Kit; in assay [1]) were below 0.001 µM and 0.01 to 0.1 µM, respectively.

With `C=C(c1ccccc1)c1cnc(N2CCN(c3ncnc(Nc4cnn(C[C@@H]5CNCCO5)c4)n3)CC2)nc1` [Compound 173], the results for the IC50 (on D816V Kit; in assay [1]) were 0.00101 to 0.01 µM and 0.01 to 0.1 µM, respectively.

Consider `Fc1cc(N2CCNCC2)ccc1Nc1ncnc(N2CCN(c3ncc(Cc4ccccc4)cn3)CC2)n1` [Compound 175], for which the figures for the IC50 (on D816V Kit; in assay [1]) were 0.00101 to 0.01 µM and 1 to 10 µM, respectively.

For the compound `CN1CCNC[C@H]1Cn1cc(Nc2ncnc(N3CCN(c4ncc(Cc5ccccc5)cn4)CC3)n2)cn1` [Compound 176], the IC50 is 0.00101 to 0.01 µM on D816V Kit and 0.01 to 0.1 µM in assay [1].

`CN1CCNC[C@@H]1Cn1cc(Nc2ncnc(N3CCN(c4ncc(Cc5ccccc5)cn4)CC3)n2)cn1` [Compound 177]: the IC50 on D816V Kit lay in the range of 0.00101 to 0.01 µM; in assay [1] it was 0.01 to 0.1 µM.

As to `O=C(c1ccccc1)c1cnc(N2CCN(c3ncnc(Nc4cnn(CC5CNCCO5)c4)n3)CC2)nc1` (centres unmarked) [Compound 178], the IC50 at D816V Kit fell in the range of 0.00101 to 0.01 µM; in assay [1], 0.1 to 1 µM.

Turning to `C[C@@H]1CN(c2ncnc(Nc3cnn(C[C@@H]4CNCCO4)c3)n2)CCN1c1ncc(Cc2ccccc2)cn1` [Compound 183], the IC50 is 0.00101 to 0.01 µM on D816V Kit and 0.01 to 0.1 µM in assay [1].

For `Cc1nn(C[C@@H]2CNCCO2)cc1Nc1ncnc(N2CCN(c3ncc(Cc4ccccc4)cn3)CC2)n1` [Compound 184], the results for the IC50 (on D816V Kit; in assay [1]) were 0.00101 to 0.01 µM and 0.01 to 0.1 µM, respectively.

For `Cc1c(Nc2ncnc(N3CCN(c4ncc(Cc5ccccc5)cn4)CC3)n2)cnn1C[C@@H]1CNCCO1` [Compound 185], the IC50 on D816V Kit lay in the range of 0.00101 to 0.01 µM; in assay [1] it was 0.01 to 0.1 µM.

Turning to `C[C@H](c1ccccc1)c1cnc(N2CCN(c3ncnc(Nc4cnn(C[C@@H]5CNCCO5)c4)n3)CC2)nc1` [Compound 186, N-(1-((S)-morpholin-2-ylmethyl)-1H-pyrazol-4-yl)-4-(4-(5-((R)-1-phenylethyl)pyrimidin-2-yl)piperazin-1-yl)-1,3,5-triazin-2-amine], the IC50 on D816V Kit was below 0.001 µM; in assay [1], 0.01 to 0.1 µM.

As for `O[C@@H](c1ccccc1)c1cnc(N2CCN(c3ncnc(Nc4cnn(CC5CNCCO5)c4)n3)CC2)nc1` (stereo partly drawn) [Compound 189, (S)-(2-(4-(4-(1-(morpholin-2-ylmethyl)-1H-pyrazol-4-ylamino)-1,3,5-triazin-2-yl)piperazin-1-yl)pyrimidin-5-yl)(phenyl)methanol], the IC50 at D816V Kit is below 0.001 µM; in assay [1] it was 0.01 to 0.1 µM.

Consider `c1ccc(OCc2cnc(N3CCN(c4ncnc(Nc5cnn(C[C@@H]6CNCCO6)c5)n4)CC3)nc2)cc1` [Compound 190], for which the IC50 on D816V Kit was in the range of 0.00101 to 0.01 µM; in assay [1], 0.01 to 0.1 µM.

For `O=S1(=O)Cc2ccc(Nc3ncnc(N4CCN(c5ncc(Cc6ccccc6)cn5)CC4)n3)cc2CN1` [Compound 192], the IC50 on D816V Kit is below 0.001 µM; in assay [1], below 0.01 µM.

As to `CC(C)(O)c1ccc(Nc2ncnc(N3CCN(c4ncc([C@@](C)(N)c5ccc(F)cc5)cn4)CC3)n2)cc1` [Compound 193], the IC50 on D816V Kit was below 0.001 µM; in assay [1], below 0.01 µM.

Turning to `C[C@](N)(c1ccc(F)cc1)c1cnc(N2CCN(c3ncnc(Nc4ccc([C@@H](O)CO)cc4)n3)CC2)nc1` [Compound 195], the IC50 at D816V Kit is below 0.001 µM; in assay [1] it was below 0.01 µM.

In the case of `Fc1ccc(Cc2cnc(N3CCN(c4ncnc(Nc5cnn(C[C@@H]6CNCCO6)c5)n4)CC3)nc2)cc1` [Compound 196], the values for the IC50 (on D816V Kit; in assay [1]) were below 0.001 µM and 0.01 to 0.1 µM, respectively.

On to `Fc1cccc(Cc2cnc(N3CCN(c4ncnc(Nc5cnn(C[C@@H]6CNCCO6)c5)n4)CC3)nc2)c1` [Compound 197], for which the figures for the IC50 (on D816V Kit; in assay [1]) were 0.00101 to 0.01 µM and 0.1 to 1 µM, respectively.

As to `Fc1ccccc1Cc1cnc(N2CCN(c3ncnc(Nc4cnn(C[C@@H]5CNCCO5)c4)n3)CC2)cn1` [Compound 198], the figures for the IC50 (on D816V Kit; in assay [1]) were below 0.001 µM and below 0.01 µM, respectively.

Turning to `c1ccc(Sc2cnc(N3CCN(c4ncnc(Nc5cnn(C[C@@H]6CNCCO6)c5)n4)CC3)nc2)cc1` [Compound 199], the IC50 on D816V Kit lay in the range of 0.00101 to 0.01 µM; in assay [1] it was 0.01 to 0.1 µM.

On to `Fc1ccc(Nc2cnc(N3CCN(c4ncnc(Nc5cnn(C[C@@H]6CNCCO6)c5)n4)CC3)nc2)cc1` [Compound 200], for which the values for the IC50 (on D816V Kit; in assay [1]) were 0.00101 to 0.01 µM and 0.1 to 1 µM, respectively.

For `CC(C)(O)Cn1cc(Nc2ncnc(N3CCN(c4ncc(C(C)(C)c5ccc(F)cc5)cn4)CC3)n2)cn1` [Compound 201], the IC50 is below 0.001 µM on D816V Kit and 0.01 to 0.1 µM in assay [1].

For the compound `Fc1ccc(Oc2cnc(N3CCN(c4ncnc(Nc5cnn(C[C@@H]6CNCCO6)c5)n4)CC3)nc2)cc1` [Compound 202], the IC50 on D816V Kit fell in the range of 0.00101 to 0.01 µM; in assay [1], 0.1 to 1 µM.

For the compound `Fc1ccccc1Oc1cnc(N2CCN(c3ncnc(Nc4cnn(C[C@@H]5CNCCO5)c4)n3)CC2)nc1` [Compound 203, (S)-4-(4-(5-(2-fluorophenoxyl)pyrimidin-2-yl)piperazin-1-yl)-N-(1-(morpholin-2-ylmethyl)-1H-pyrazol-4-yl)-1,3,5-triazin-2-amine], the IC50 on D816V Kit lay in the range of 0.00101 to 0.01 µM; in assay [1] it was 0.01 to 0.1 µM.

For the compound `Fc1cccc(Oc2cnc(N3CCN(c4ncnc(Nc5cnn(C[C@@H]6CNCCO6)c5)n4)CC3)nc2)c1` [Compound 204], the values for the IC50 (on D816V Kit; in assay [1]) were 0.00101 to 0.01 µM and 0.1 to 1 µM, respectively.

Consider `C[C@H](O)CNc1ccc(Nc2ncnc(N3CCN(c4ncc(Sc5ccccc5F)cn4)CC3)n2)cc1` [Compound 205], for which the IC50 on D816V Kit was in the range of 0.00101 to 0.01 µM; in assay [1], 0.01 to 0.1 µM.

Take `CC(C)(O)Cn1cc(Nc2ncnc(N3CCN(c4ncc([C@](C)(O)c5ccc(F)cc5)cn4)CC3)n2)cn1` [Compound 207]: the IC50 was below 0.001 µM at D816V Kit and 0.01 to 0.1 µM in assay [1].

For the compound `CC(C)(O)Cn1cc(Nc2ncnc(N3CCN(c4ncc([C@@](C)(O)c5ccc(F)cc5)cn4)CC3)n2)cn1` [Compound 208], the IC50 was below 0.001 µM on D816V Kit and below 0.01 µM in assay [1].

Turning to `Cc1nn(CC(C)(C)O)cc1Nc1ncnc(N2CCN(c3ncc(Sc4ccccc4F)cn3)CC2)n1` [Compound 209], the IC50 on D816V Kit is below 0.001 µM; in assay [1], 0.01 to 0.1 µM.

In the case of `Cc1c(Nc2ncnc(N3CCN(c4ncc(Sc5ccccc5F)cn4)CC3)n2)cnn1CC(C)(C)O` [Compound 210], the IC50 is below 0.001 µM on D816V Kit and 0.01 to 0.1 µM in assay [1].

Take `O=C1CCc2ccc(Nc3ncnc(N4CCN(c5ncc(Cc6ccccc6)cn5)C(CCO)C4)n3)cc2N1` (centres unmarked) [Compound 213]: the results for the IC50 (at D816V Kit; in assay [1]) were 0.00101 to 0.01 µM and 0.01 to 0.1 µM, respectively.

`C[C@@H](O)CN1CCc2ccc(Nc3ncnc(N4CCN(c5ncc(Cc6ccccc6)cn5)CC4)n3)cc2C1` [Compound 220]: the results for the IC50 (at D816V Kit; in assay [1]) were below 0.001 µM and 0.01 to 0.1 µM, respectively.

Turning to `C[C@H](O)CN1CCc2ccc(Nc3ncnc(N4CCN(c5ncc(Cc6ccccc6)cn5)CC4)n3)cc2C1` [Compound 221], the IC50 on D816V Kit is below 0.001 µM; in assay [1], below 0.01 µM.

As for `C[C@@H]1CN(c2ncnc(Nc3ccc(N4CCC[C@@H](O)C4)cc3)n2)CCN1c1ncc(Cc2ccccc2)cn1` [Compound 222], the IC50 fell in the range of 0.00101 to 0.01 µM at D816V Kit and 0.01 to 0.1 µM in assay [1].
